From patent US6358736B1, “Method for increasing the antigen presenting ability of leukemia cells” (The United States of America as represented by the …, priority 1995, dated 2002) come the findings set out here.

Entries after “also recorded” stand apart in the source; their conditions may differ.

The subject of test [1] is HL-60 cells. Put plainly: FACS analysis of cell surface markers on HL-60 cells. Format: cell-based, human. On the procedure:
Calcium was removed from cultured cells by two methods.
The second method involved washing the cells extensively in calcium-free RPMI medium, and culturing them in the same calcium-free medium supplemented with serum that had been dialyzed against calcium-free phosphate-buffered saline.
The calmodulin kinase inhibitors KN-62 (20 uM) or KT-5926 (1 uM) was added to HL-60 cells in the presence of 188 ng/ml A23187. Twenty four hours later the level of CD80 was analyzed.
Thapsigargin was added to cultured human peripheral blood monocytes and HL-60 cells in concentrations ranging from 0 to 1000 nM. Cells were harvested 24 hours later and evaluated for the acquisition of ADC immunophenotypic characteristics by FACS analysis.
Cells were harvested after three days, irradiated (3000R), then FACS analyzed or cocultured in graded numbers with freshly prepared naive (CD45RO negative) T lymphocytes. Allosensitization was assessed by pulsing at day 4 with ^3H-TdR and harvesting 18 hours later.

Test [2] relates to HL-60 cells. Described as above. Format: cell-based, human. The source holds these as a separate data set.
The subject of test [3] is human peripheral blood monocytes. Kind of test: FACS analysis of cell surface markers on cultured peripheral blood monocytes. As to conditions: for effect of agent on ionophore-induced activated myeloid dendritic cell phenotype: added to calcium ionophore treatment; for induction of activated myeloid dendritic cell phenotype (CD80 and CD83 expression): 20-40 hours, wide dose range, alone or in combination. Format: cell-based.

For a further test, the system named is WEHI-3. Put plainly: Costimulatory molecule expression on mouse myeloid leukemia line. Format: cell-based. As to conditions: following calcium mobilization. An excerpt: Myeloid leukemia cell lines display marked upregulation of molecules linked to antigen-presentation and acquire increased T cell sensitizing capacity following calcium mobilization with either calcium ionophore or thapsigargin.

A further test concerns monocytes. Kind of test: Calcium-chelation luminescence spectrophotometry of intracellular calcium flux. Format: cell-based, human. The conditions noted are these: indol-loaded monocytes; calcium ionophore 180-750 ng/ml. On the procedure:
Calcium-chelation luminescence spectrophotometry was utilized to measure intracellular calcium fluxes in monocytes. Monoytes were incubated with 5 uM/ml indol, a calcium chelating agent which emits fluorescence at different wavelengths (405 or 480 nm) depending on whether or not it is bound to cycloplasmic calcium. Increased calcium mobilization causes relative shifts in emission from one wavelength to the other. After 30 minute incubation with indol, monocytes were washed, pulsed with a variety of agents such as calcium ionophore, virus, f-MET-LEU-PHE, or LPS. To measure calcium fluxes at subsequent time intervals, cells were stimulated with a 355 nm wavelength beam, and fluorescence emission measured at 405 and 480 nm.

On to `O=C(O)CN(CCN(CC(=O)O)CC(=O)O)CC(=O)O` [EDTA], for which the “suppression of ionophore-induced CD80/CD86” value in the test with HL-60 cells [1] (0.25 uM EDTA) was “suppressive effects rapidly diminished”. For the same molecule, the “suppression of ionophore-induced CD80/CD86” value in the test with HL-60 cells [1] (0.5 uM EDTA) was “Almost identical suppression”. In the test on HL-60 cells [1] (1 uM EDTA), the “diminution of ionophore-induced CD86 levels” value was “more than 85%” and the “suppression of ionophore-induced CD80 upregulation” value is listed as 100%.
As to `NCCCCCCNS(=O)(=O)c1cccc2c(Cl)cccc12` [W-7], in the test on HL-60 cells [2] (W-7 50 uM (optimal), A23187 188 ng/ml, 24 hours), the “inhibition of ionophore-induced CD80 expression” value is “over 75%”. Moreover, the “effect of agent on ionophore-induced activated myeloid dendritic cell phenotype” value (“effect of agent” for short) in test [3] was “inhibited at least some of the ionophore's effects”.
In the case of `CN[C@@H]1C[C@H]2O[C@@](C)([C@@H]1OC)n1c3ccccc3c3c4c(c5c6ccccc6n2c5c31)C(=O)NC4` [staurosporine], the “effect of agent” value in test [3] is “enhanced CD14 downregulation and upregulation of costimulatory, MHC, and other molecule expression”.
In the case of `C/C=C(/C)C(=O)O[C@H]1C(C)=C2[C@H]([C@@H]1OC(=O)CCCCCCC)[C@@](C)(OC(C)=O)C[C@H](OC(=O)CCC)[C@@]1(O)[C@H]2OC(=O)[C@@]1(C)O` [thapsigargin], in the test on HL-60 cells [2] (optimal doses, within 20 hours), the “expression of CD83, ICAM-1, B7.1 and B7.2” value is “uniform de novo expression of CD83, ICAM-1, B7.1, and B7.2”. In the test on HL-60 cells [1] (24 hours, range 0 to 1000 nM), the “dose giving optimal response” value is 250 nM. Also, in the test with HL-60 cells [1] (thapsigargin 250 nM, 24 hours), the “levels of CD80, CD86 and ICAM-1 relative to those observed with ionophore” value is 50-75%. In addition, in the test on WEHI-3, the costimulatory molecule expression entry was “markedly increased costimulatory molecule expression”. Also, the “upregulation of CD80, CD86, CD40, HLA-DR, HLA-ABC, ICAM-1 and CD83 as magnitude of that with optimal (750 ng/ml) A23187” value in test [3] (thapsigargin 750 nM, 24 hours) is “about 50%”. In addition, in test [3] (thapsigargin, 24 hours), the “CD14 downregulation, effectiveness relative to ionophore” value is recorded as “about 75%”.
“MCP-1: chemokine inducing monocyte chemotaxis”: the “induction of activated myeloid dendritic cell phenotype (CD80 and CD83 expression)” value (from here on “induction”) in test [3] is given as “do not induce monocytes to express the phenotype of activated myeloid dendritic cells”.
In the case of f-MET-LEU-PHE, the “intracellular calcium flux / mobilization” value in the test with monocytes is on record as “only a brief calcium flux of much lower magnitude”. Moreover, the “induction” value in test [3] is “do not induce monocytes to express the phenotype of activated myeloid dendritic cells; also recorded: does not induce that phenotype”.
Consider rhGM-CSF: recombinant human GM-CSF, for which, in the test with HL-60 cells [2] (rhGM-CSF alone), the “effect on HL-60 phenotype” value is given as “little effect alone”. Besides, the “effect of agent” value in test [3] is “enhanced CD14 downregulation and upregulation of costimulatory, MHC, and other molecule expression”.
For the molecule rhIL-4: recombinant human IL-4, the “effect of agent” value in test [3] is “enhanced CD14 downregulation and upregulation of costimulatory, MHC, and other molecule expression”.
The same measure, in the same setting: under rhIL-6: recombinant human IL-6 stands “little or no effect”.
Take trifluoperazine dimaleate [TpD]: the “inhibition of ionophore-induced up-regulation of CD80” value in the test with HL-60 cells [2] (TpD 10 uM (optimal), A23187 188 ng/ml, 24 hours) is listed as “over 90%”. Moreover, the “effect on CD40, HLA-DR and HLA-ABC” value in test [3] (TpD) is listed as “significant suppressive effects”. In test [3] (TpD 10 uM (optimal)), the “inhibition of CD80” value is recorded as “over 50%” and the “inhibition of CD86” value was “over 50%”. Besides, in test [3], the “effect of agent” value is reported as “inhibited at least some of the ionophore's effects”.

B1: rhIL-10: recombinant human IL-10 (protein, UniProt P22301 19-178, looked up)
Interleukin-10: SPGQGTQSENSCTHFPGNLPNMLRDLRDAFSRVKTFFQMKDQLDNLLLKESLLEDFKGYLGCQALSEMIQFYLEEVMPQAENQDPDIKAHVNSLGENLKTLRLRLRRCHRFLPCENKSKAVEQVKNAFNKLQEKGIYKAMSEFDIFINYIEAYMTMKIRN
With B1, in test [3], the “effect of agent” value is “inhibited at least some of the ionophore's effects”.

B2: RANTES: chemokine inducing monocyte chemotaxis (protein, UniProt P13501 24-91, looked up)
C-C motif chemokine 5: SPYSSDTTPCCFAYIARPLPRAHIKEYFYTSGKCSNPAVVFVTRKNRQVCANPEKKWVREYINSLEMS
As for B2, in test [3], the “induction” value is listed as “do not induce monocytes to express the phenotype of activated myeloid dendritic cells”.

B3: rhIFN-gamma: recombinant human interferon gamma (protein, UniProt P01579 24-161, looked up)
Interferon gamma: QDPYVKEAENLKKYFNAGHSDVADNGTLFLGILKNWKEESDRKIMQSQIVSFYFKLFKNFKDDQSIQKSVETIKEDMNVKFFNSNKKKRDDFEKLTNYSVTDLNVQRKAIHELIQVMAELSPAAKTGKRKRSQMLFRG
With B3, in the test with HL-60 cells [1] (agent alone), the HLA-DR expression entry is given as “induces HLA-DR expression”. In addition, the “effect of agent” value in test [3] was “enhanced CD14 downregulation and upregulation of costimulatory, MHC, and other molecule expression”.

B4: MIP-1-alpha: chemokine inducing monocyte chemotaxis (protein, UniProt P10147 24-92, looked up)
C-C motif chemokine 3: SLAADTPTACCFSYTSRQIPQNFIADYFETSSQCSKPGVIFLTKRSRQVCADPSEEWVQKYVSDLELSA
Regarding B4, the “induction” value in test [3] is listed as “do not induce monocytes to express the phenotype of activated myeloid dendritic cells”.

B5: rhIL-1 alpha: recombinant human IL-1 alpha (protein, UniProt P01583 113-271, looked up)
Interleukin-1 alpha: SAPFSFLSNVKYNFMRIIKYEFILNDALNQSIIRANDQYLTAAALHNLDEAVKFDMGAYKSSKDDAKITVILRISKTQLYVTAQDEDQPVLLKEMPEIPKTITGSETNLLFFWETHGTKNYFTSVAHPNLFIATKQDYWVCLAGGPPSITDFQILENQA
As for B5, the “effect of agent” value in test [3] is given as “little or no effect”.

B6: rhIL-12: recombinant human IL-12 (protein, UniProt P29459 23-219; P29460 23-328, looked up)
Interleukin-12 subunit alpha: RNLPVATPDPGMFPCLHHSQNLLRAVSNMLQKARQTLEFYPCTSEEIDHEDITKDKTSTVEACLPLELTKNESCLNSRETSFITNGSCLASRKTSFMMALCLSSIYEDLKMYQVEFKTMNAKLLMDPKRQIFLDQNMLAVIDELMQALNFNSETVPQKSSLEEPDFYKTKIKLCILLHAFRIRAVTIDRVMSYLNAS
Interleukin-12 subunit beta: IWELKKDVYVVELDWYPDAPGEMVVLTCDTPEEDGITWTLDQSSEVLGSGKTLTIQVKEFGDAGQYTCHKGGEVLSHSLLLLHKKEDGIWSTDILKDQKEPKNKTFLRCEAKNYSGRFTCWWLTTISTDLTFSVKSSRGSSDPQGVTCGAATLSAERVRGDNKEYEYSVECQEDSACPAAEESLPIEVMVDAVHKLKYENYTSSFFIRDIIKPDPPKNLQLKPLKNSRQVEVSWEYPDTWSTPHSYFSLTFCVQVQGKSKREKKDRVFTDKTSATVICRKNASISVRAQDRYYSSSWSEWASVPCS
For B6, in test [3], the “effect of agent” value is “enhanced CD14 downregulation and upregulation of costimulatory, MHC, and other molecule expression”.
